This passage reports inhibition and IC50 results from patent publication US20030236257A1, “Polycyclic aryl and heteroaryl substituted 4-pyridones useful for selective inhibition of the cogulation cascade” (priority 2003, published 2003).

Common to all, as to assay type: biochemical
The target in one assay is T1, human factor Xa (Homo sapiens, UniProt P00742).
T1 construct: purchased Enzyme Research Laboratories, South Bend IN
The experiment in a line: Xa Assay. The conditions noted are these: read-out: IC50 or % Inhibition Factor Xa (30 µM): % inhibition. On the procedure:
(§1) 0.3 nM human factor Xa and 0.15 mM N-a-Benzyloxycarbonyl-D-arginyl-L-glycyl-L-arginne-nitroaniline-dihydrochloride (S-2765) are added to a 96-well assay plate containing either inhibitor or buffer (50 mM Tris-HCl, pH 8.0, 100 mM NaCl, 0.1% BSA). The reaction, in a final volume of 100 ul is measured immediately at 405 nm to determine background absorbance. The plate is incubated at room temperature for 60 min, at which time the rate of hydrolysis of the substrate is measured by monitoring the reaction at 405 nm for the release of p-nitroaniline. Percent inhibition of Xa activity is calculated from OD405nm value from the experimental and control sample.
(§2) Recombinant soluble TF, consisting of amino acids 1-219 of the mature protein sequence was expressed in E. coli and purified using a Mono Q Sepharose FPLC. Recombinant human […] was purchased from American Diagnostica, Greenwich Cr and chromogenic substrate N-Methylsulfonyl-D-phe-gly-arg-pnitroaniline was prepared by American Peptide Company, Inc., Sunnyvale, Calif. Factor Xa was obtained from Enzyme Research Laboratories, South Bend IN, thrombin from Calbiochem, La Jolla, Calif., and trypsin and L-BAPNA from Sigma, St. Louis Mo. The chromogenic substrates S-2765 and S-2238 were purchased from Chromogenix, Sweden.

Assay [1] addresses T2, trypsin, type IX from porcine pancreas (Sus scrofa, UniProt P00761).
T2 construct: purchased Sigma, St. Louis Mo; host or cells: porcine pancreas
The experiment in a line: Trypsin Assay. The conditions noted are these: chromogenic substrate L-BAPNA, 60 min at room temperature, OD 405 nm; read-out: IC50 or % Inhibition Trpysin II (30 µM): IC50. Here is the method:
5 ug/ml trypsin, type IX from porcine pancreas and 0.375 mM N-α-Benzoyl-L-arginine-p-nitroanilide (LBAPNA) are added to a 96-well assay plate containing either inhibitor or buffer (50 mM Tris-HCl, pH 8.0, 100 mM NaCl, 0.1% BSA). The reactions, in a final volume of 100 ul are measured immediately at 405 nm to determine background absorbance. The plate is incubated at room temperature for 60 min, at which time the rate of hydrolysis of the substrate is measured by monitoring the reaction at 405 nm for the release of p-nitroaniline. Percent inhibition of trypsin activity is calculated from OD405nm value from the experimental and control sample.
as §2

Assay [2] has as its target T3, TF-VIIa (recombinant soluble tissue factor and recombinant human factor VIIa) (Homo sapiens, UniProt P08709).
T3 construct: purchased American Diagnostica, Greenwich; host or cells: soluble TF made in house in E. coli
Briefly: TF-VIIa Assay. The note with it: chromogenic substrate, 60 min at room temperature, OD 405 nm; read-out: IC50 or % Inhibition TF-VIIa (30 µM): IC50. On the procedure:
as §1, with “In this assay 100” for “0.3”, “nM recombinant soluble tissue factor and 2 nM recombinant” for “nM”, “VIIa” for “Xa and 0.15 mM N-a-Benzyloxycarbonyl-D-arginyl-L-glycyl-L-arginne-nitroaniline-dihydrochloride (S-2765)”, “containing 0.4 mM of the substrate, N-Methylsulfonyl-D-phe-gly-arg-p-nitroaniline and” for “containing”, “(5 mM CaCl2, 50” for “(50”, “TF-VIIa” for “Xa”
as §2

The target in a further assay is human thrombin (Homo sapiens, UniProt P00734). The experiment in a line: Thrombin Assay. On the procedure:
as §1, with “0.28” for “0.3”, “thrombin” for “factor Xa”, “0.06” for “0.15”, “H-D-Phenylalanyl-L-pipecolyl-L, arginine-nitroaniline, dihydrochloride” for “N-a-Benzyloxycarbonyl-D-arginyl-L-glycyl-L-arginne-nitroaniline-dihydrochloride (S-2765)”, “pnitroaniline.” for “p-nitroaniline.”, “thrombin” for “Xa”
as §2

T3 sequence (P08709 213-466 limits assumed): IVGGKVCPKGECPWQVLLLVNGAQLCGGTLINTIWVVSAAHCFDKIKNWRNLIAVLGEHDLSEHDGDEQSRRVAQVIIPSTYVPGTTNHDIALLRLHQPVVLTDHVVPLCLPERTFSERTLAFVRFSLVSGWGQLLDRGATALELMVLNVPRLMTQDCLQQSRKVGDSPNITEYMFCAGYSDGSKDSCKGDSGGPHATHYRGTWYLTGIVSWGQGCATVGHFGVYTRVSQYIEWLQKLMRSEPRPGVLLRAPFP
T3 sequence (P08709 61-212 partner limits assumed): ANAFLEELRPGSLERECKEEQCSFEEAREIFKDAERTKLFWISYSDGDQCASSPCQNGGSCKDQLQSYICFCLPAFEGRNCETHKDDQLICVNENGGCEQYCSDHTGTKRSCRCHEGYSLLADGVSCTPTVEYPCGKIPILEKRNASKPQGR
T3 sequence (P13726 33-251 partner limits assumed): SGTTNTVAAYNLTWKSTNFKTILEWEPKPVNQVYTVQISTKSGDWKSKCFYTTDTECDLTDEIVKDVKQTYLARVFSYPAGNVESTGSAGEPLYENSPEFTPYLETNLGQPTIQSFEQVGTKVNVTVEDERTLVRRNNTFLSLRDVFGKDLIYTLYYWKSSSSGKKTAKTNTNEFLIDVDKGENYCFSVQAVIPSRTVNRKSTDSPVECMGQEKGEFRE
T2 sequence (P00761 9-231): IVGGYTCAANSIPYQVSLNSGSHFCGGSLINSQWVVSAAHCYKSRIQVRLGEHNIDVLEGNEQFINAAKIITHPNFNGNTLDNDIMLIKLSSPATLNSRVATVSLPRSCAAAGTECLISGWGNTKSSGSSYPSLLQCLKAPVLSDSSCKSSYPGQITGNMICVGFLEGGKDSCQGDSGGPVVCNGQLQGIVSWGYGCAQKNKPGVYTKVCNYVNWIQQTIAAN
T1 sequence (P00742 235-488 limits assumed): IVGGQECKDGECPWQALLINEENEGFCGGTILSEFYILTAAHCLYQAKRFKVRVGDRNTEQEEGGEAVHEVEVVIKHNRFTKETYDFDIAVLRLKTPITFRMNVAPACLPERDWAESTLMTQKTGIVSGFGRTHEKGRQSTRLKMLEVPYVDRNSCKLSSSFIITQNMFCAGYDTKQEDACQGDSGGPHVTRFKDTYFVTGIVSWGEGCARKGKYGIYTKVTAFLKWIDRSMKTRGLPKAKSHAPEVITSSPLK
T1 sequence (P00742 41-179 partner limits assumed): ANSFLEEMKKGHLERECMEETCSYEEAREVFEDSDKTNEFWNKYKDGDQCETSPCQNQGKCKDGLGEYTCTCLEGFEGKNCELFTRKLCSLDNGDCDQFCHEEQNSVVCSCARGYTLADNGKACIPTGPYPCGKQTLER

Take `CC(C)Nc1cn(C)c(-c2cccc(N)c2)c(CC(=O)NCc2ccc(C(=N)N)cc2)c1=O` [Example 1]: the inhibition (usually the change of the read-out against control, counted positive when it falls) at 100 µM at human factor Xa was 32%. The concentration for half-maximal inhibition (IC50) – broadly, the concentration needed to halve the response being measured – worked out at 33 nM in assay [1]; 280 nM in assay [2]; 100000 nM on human thrombin (chromogenic substrate, 60 min at room temperature, OD 405 nm, read-out: IC50 or % Inhibition Thrombin (30 µM): IC50).
With `CCCn1cc(NC(C)C)c(=O)c(CC(=O)NCc2ccc(C(=N)N)cc2)c1-c1cccc(N)c1` [Example 2], the inhibition at 100 µM at human factor Xa came to 34%; on human thrombin (at 100 μM, read-out: IC50 or % Inhibition Thrombin (30 µM): % inhibition) it was 45%. Besides, the IC50 turned out to be 151 nM in assay [1] and 560 nM in assay [2].
